Source: US20230159527A1, “COMPOUNDS AS BCL-2 INHIBITORS” (Fochon Pharmaceuticals, Ltd., priority 2020, published 2023)
Read-outs that look alike come from different tables or passages of the source.

Experiments:
Type in all cases: cell-based
RS4;11-BCL-2 G101V cells = experiment: Cell proliferation assay, engineered RS4;11 cells stably overexpressing BCL-2 G101V (MTS, 168 h); settings: read-out: RS4, 11 BCL2- G101V
How it was run: (§1)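 Proliferation read-out: MTS for exactly 2 h, then absorbance at 490 nm, with IC50 derived from the fit. Before this, engineered RS4;11 lines (BCL-2 G101V, F104L; 5000 cells/well) were exposed 168 h at 37 °C to serially diluted compound, final 1.4–10000 nM.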

RS4;11-BCL-2 F104L cells = experiment: Cell proliferation assay, engineered RS4;11 cells stably overexpressing BCL-2 F104L (MTS, 168 h); settings: Homo sapiens, read-out: RS4, 11 BCL2-F104L
How it was run: as §1

Toledo cells = experiment: Cell proliferation assay, Toledo cells (MTS, 72 h); settings: Toledo cells, MTS, read-out: Toledo IC50
How it was run: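 IC50 was derived from 490 nm absorbance after a 2 h MTS step. Before that, compounds at 1.5–10000 nM final (nine points) acted on Toledo cells for 72 h at 37 °C, 5% CO2. Cells were seeded at 30000/well in 10% FBS RPMI-1640 and rested 4 h before dosing.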

IC50 (RS4;11-BCL-2 G101V cells; Homo sapiens, RS4-11, 168 h) [nM]	IC50 (RS4;11-BCL-2 F104L cells) [nM]	IC50 (RS4;11-BCL-2 G101V cells) [nM]	Structure (SMILES)	IC50 (Toledo cells; Homo sapiens) [nM]	IC50 (Toledo cells) [nM]
1	1	–	CC(C)c1ccccc1[C@@H]1CCCN1C1CC2(CCN(c3ccc(C(=O)NS(=O)(=O)c4cc5c(c([N+](=O)[O-])c4)N[C@@H]([C@H]4CC[C@](C)(O)CC4)CO5)c(Oc4cc5cc[nH]c5nc4OC4CCN(C)CC4)c3)CC2)C1 (single isomer, unassigned) [Example D-229, N-(((S)-3-((1r,4S)-4-hydroxy-4-methylcyclohexyl)-5-nitro-3,4-dihydro-2H-benzo[b][1,4]oxazin-7-yl)sulfonyl)-4-(2-((R or S)-2-(2-isopropylphenyl)pyrrolidin-1-yl)-7-azaspiro[3.5]nonan-7-yl)-2-((6-((1-methylpiperidin-4-yl)oxy)-1H-pyrrolo[2,3-b]pyridin-5-yl)oxy)benzamide]	1	–
1	1	–	CC(C)c1ccccc1[C@@H]1CCCN1C1CC2(CCN(c3ccc(C(=O)NS(=O)(=O)c4cc5c(c([N+](=O)[O-])c4)N[C@@H]([C@H]4CC[C@](C)(O)CC4)CO5)c(Oc4cc5cc[nH]c5nc4OC[C@H]4CCCN4C)c3)CC2)C1 (single isomer, unassigned) [Example D-130, N-(((S)-3-((1r,4S)-4-hydroxy-4-methylcyclohexyl)-5-nitro-3,4-dihydro-2H-benzo[b][1,4]oxazin-7-yl)sulfonyl)-4-(2-((R or S)-2-(2-isopropylphenyl)pyrrolidin-1-yl)-7-azaspiro[3.5]nonan-7-yl)-2-((6-(((R)-1-methylpyrrolidin-2-yl)methoxy)-1H-pyrrolo[2,3-b]pyridin-5-yl)oxy)benzamide]	1	–
1	11	–	CC(C)c1ccccc1[C@@H]1CCCN1C1CC2(CCN(c3ccc(C(=O)NS(=O)(=O)c4cc5c(c([N+](=O)[O-])c4)N[C@@H]([C@H]4CC[C@](C)(O)CC4)CO5)c(Oc4cc5cc[nH]c5nc4OCCN4CCC4)c3)CC2)C1 (single isomer, unassigned) [Example D-61, 2-((6-(2-(azetidin-l-yl)ethoxy)-1H-pyrrolo[2,3-b]pyridin-5-yl)oxy)-N-(((S)-3-((1r,4S)-4-hydroxy-4-methylcyclohexyl)-5-nitro-3,4-dihydro-2H-benzo[b][1,4]oxazin-7-yl)sulfonyl)-4-(2-((R or S)-2-(2-isopropylphenyl)pyrrolidin-1-yl)-7-azaspiro[3.5]nonan-7-yl)benzamide]	1	–
6	1	–	CC(C)c1ccccc1[C@@H]1CCCN1C1CC2(CCN(c3ccc(C(=O)NS(=O)(=O)c4cc5c(c([N+](=O)[O-])c4)N[C@@H]([C@H]4CC[C@](C)(O)CC4)CO5)c(Oc4cc5cc[nH]c5nc4OC[C@@H]4COCCO4)c3)CC2)C1 (single isomer, unassigned) [Example D-251, 2-((6-(((S)-1,4-dioxan-2-yl)methoxy)-1H-pyrrolo[2,3-b]pyridin-5-yl)oxy)-N-(((S)-3-((1r,4S)-4-hydroxy-4-methylcyclohexyl)-5-nitro-3,4-dihydro-2H-benzo[b][1,4]oxazin-7-yl)sulfonyl)-4-(2-((R or S)-2-(2-isopropylphenyl)pyrrolidin-1-yl)-7-azaspiro[3.5]nonan-7-yl)benzamide]	1	–
14	33	–	CC(C)c1ccccc1[C@@H]1CCCN1C1CC2(CCN(c3ccc(C(=O)NS(=O)(=O)c4cc5c(c([N+](=O)[O-])c4)N[C@@H]([C@H]4CC[C@](C)(O)CC4)CO5)c(Oc4cc5cc[nH]c5nc4Cl)c3)CC2)C1 (single isomer, unassigned) [Example D-18, 2-((6-chloro-1H-pyrrolo[2,3-b]pyridin-5-yl)oxy)-N-(((S)-3-((1r,4S)-4-hydroxy-4-methylcyclohexyl)-5-nitro-3,4-dihydro-2H-benzo[b] [1,4]oxazin-7-yl)sulfonyl)-4-(2-((R or S)-2-(2-isopropylphenyl)pyrrolidin-1-yl)-7-azaspiro[3.5]nonan-7-yl)benzamide]	1	–

Further lines, the compound ahead of its results:

Structure (SMILES)	IC50 (RS4;11-BCL-2 G101V cells; Homo sapiens, RS4-11, 168 h) [nM]	IC50 (RS4;11-BCL-2 F104L cells) [nM]	IC50 (RS4;11-BCL-2 G101V cells) [nM]	IC50 (Toledo cells; Homo sapiens) [nM]	IC50 (Toledo cells) [nM]
CC(C)c1ccccc1[C@@H]1CCCN1C1CC2(CCN(c3ccc(C(=O)NS(=O)(=O)c4cc5c(c([N+](=O)[O-])c4)N[C@@H]([C@H]4CC[C@](C)(O)CC4)CO5)c(Oc4cc5c(F)c[nH]c5nc4F)c3)CC2)C1 (single isomer, unassigned) [Example D-55, 2-((3,6-difluoro-1H-pyrrolo[2,3-b]pyridin-5-yl)oxy)-N-(((S)-3-((1r,4S)-4-hydroxy-4-methylcyclohexyl)-5-nitro-3,4-dihydro-2H-benzo [b][1,4]oxazin-7-yl)sulfonyl)-4-(2-((R or S)-2-(2-isopropylphenyl)pyrrolidin-1-yl)-7-azaspiro[3.5]nonan-7-yl)benzamide]	14	19	–	1	–
CC(C)c1ccccc1[C@@H]1CCC[C@@H]1N1CC2(CCN(c3ccc(C(=O)NS(=O)(=O)c4cc5c(c([N+](=O)[O-])c4)N[C@@H]([C@H]4CC[C@](C)(O)CC4)CO5)c(Oc4cc5c(F)c[nH]c5nc4F)c3)CC2)C1 (single isomer, unassigned) [Example D-96, 2-((3,6-difluoro-1H-pyrrolo[2,3-b]pyridin-5-yl)oxy)-N-(((S)-3-((1r,4S)-4-hydroxy-4-methylcyclohexyl)-5-nitro-3,4-dihydro-2H-benzo[b][1,4]oxazin-7-yl)sulfonyl)-4-(2-((1S,2S or 1R,2R)-2-(2-isopropylphenyl)cyclopentyl)-2,7-diazaspiro[3.5]nonan-7-yl)benzamide]	4	1	–	1	–
COCCOc1nc2[nH]cc(F)c2cc1Oc1cc(N2CCC3(CC2)CC(N2CCC[C@H]2c2ccccc2C(C)C)C3)ccc1C(=O)NS(=O)(=O)c1cc2c(c([N+](=O)[O-])c1)N[C@@H]([C@H]1CC[C@](C)(O)CC1)CO2 (single isomer, unassigned) [Example D-71, 2-((3-fluoro-6-(2-methoxyethoxy)-1H-pyrrolo[2,3-b]pyridin-5-yl)oxy)-N-(((S)-3-((1r,4S)-4-hydroxy-4-methylcyclohexyl)-5-nitro-3,4-dihydro-2H-benzo[b][1,4]oxazin-7-yl)sulfonyl)-4-(2-((R or S)-2-(2-isopropylphenyl)pyrrolidin-1-yl)-7-azaspiro[3.5]nonan-7-yl)benzamide]	13	12	–	1	–
COCCOc1nc2[nH]cc(F)c2cc1Oc1cc(N2CCC3(CC2)CN([C@H]2CCC[C@H]2c2ccccc2C(C)C)C3)ccc1C(=O)NS(=O)(=O)c1cnc(NC[C@H]2CC[C@](C)(O)CC2)c([N+](=O)[O-])c1 (single isomer, unassigned) [Example A-154, 2-((3-fluoro-6-(2-methoxyethoxy)-1H-pyrrolo[2,3-b]pyridin-5-yl)oxy)-N-((6-(((1r,4r)-4-hydroxy-4-methyl-cyclohexyl)methyl)amino)-5-nitro-pyridin-3-yl)sulfonyl)-4-(2-((1S,2S or 1R,2R)-2-(2-isopropylphenyyl)cyclo-pentyl)-2,7-diazaspiro[3.5]nonan-7-yl) benzamide]	57	19	–	1	–
CC(C)c1ccccc1[C@@H]1CCC[C@@H]1N1CC2(CCN(c3ccc(C(=O)NS(=O)(=O)c4ccc(NC[C@H]5CC[C@](C)(O)CC5)c([N+](=O)[O-])c4)c(Oc4cnc5[nH]cc(F)c5c4)c3)CC2)C1 (single isomer, unassigned) [Example D-34b, 2-((3-fluoro-1H-pyrrolo[2,3-b]pyridin-5-yl)oxy)-N-((4-((((1r,4r)-4-hydroxy-4-methylcyclohexyl)methyl)amino)-3-nitrophenyl)sulfonyl)-4-(2-((1S,2S or 1R,2R)-2-(2-isopropylphenyl)cyclopentyl)-2,7-diazaspiro[3.5]nonan-7-yl)benzamide]	–	1	7	–	1
CC(C)c1ccccc1[C@@H]1CCC[C@@H]1N1CC2(CCN(c3ccc(C(=O)NS(=O)(=O)c4cnc(NC[C@H]5CC[C@](C)(O)CC5)c([N+](=O)[O-])c4)c(Oc4cc5c(F)c[nH]c5nc4F)c3)CC2)C1 (single isomer, unassigned) [Example A-150, 2-((3,6-difluoro-1H-pyrrolo[2,3-b]pyridin-5-yl)oxy)-N-((6-((((1r,4r)-4-hydroxy-4-methylcyclohexyl)methyl)amino)-5-nitropyridin-3-yl)sulfonyl)-4-(2-((1S,2S or 1R,2R)-2-(2-isopropylphenyl)cyclo-petyl)-2,7-diazaspiro[3.5]nonan-7-yl) benzamide]	6	1	–	1	–
COc1nc2[nH]cc(F)c2cc1Oc1cc(N2CCC3(CC2)CN([C@H]2CCC[C@H]2c2ccccc2C(C)C)C3)ccc1C(=O)NS(=O)(=O)c1cnc(NC[C@H]2CC[C@](C)(O)CC2)c([N+](=O)[O-])c1 (single isomer, unassigned) [Example A-152, 2-((3-fluoro-6-methoxy-1H-pyrrolo [2,3-b]pyridin-5-yl)oxy)-N-((6-(((1r, 4r)-4-hydroxy-4-methylcyclohexyl)methyl)amino)-5-nitropyridin-3-yl) sulfonyl)-4-(2-((1S,2S or 1R,2R)-2-(2-isopropylphenyl)cyclo-pentyl)-2,7-diazaspiro[3.5]nonan-7-yl) benzamide]	40	9	–	1	–
